# Assay results: patent US12280148B2, “Composition for promoting extracellular vesicle production containing peptide derived from noxa protein and method for producing extracellular vesicles by using same” (Exocalibre Therapeutics Co., Ltd., priority 2020, dated 2025)
# Tests used:
# Assay type in all cases: cell-based, human
# 293-HEK cell line [1] = assay: Extracellular vesicle output quantified by Bradford solution
# Description: The 293-HEK cell line was cultured in a 6-well plate at a rate of 2×10^5 cells/mL, and the next day, the cell line was treated with the solution of Example 1 and a peptide of any one of SEQ ID NOs: 1 to 21. […], the solution was removed, followed by centrifugation at an RCF of 12000, and the extracellular vesicles were quantified using the supernatant by Bradford solution.
# 293-HEK cell line [2] = assay: Extracellular vesicle size and quantity by Nanoparticle Tracking Analysis (NTA); settings: 50-fold diluted, solution of Example 1, peptide 20 μm, after 20 minutes
# Description: After the 293-HEK cell line was cultured to 90% confluency (about 2×10^7 cells) in a 10-cm culture dish, the culture was removed, and the cells were treated with the eMTDΔ4 peptide (final concentration: 20 μm), which has been dissolved in 5 ml of the solution of Example 1. After 20 minutes, the solution was removed, followed by centrifugation at an RCF of 12000, and then the size and quantity of extracellular vesicles were measured using a Nanoparticle Tracking Analysis (NTA) system (Nanosight LM10, Malvern Instruments).
# HeLa cell line = assay: Production of extracellular vesicles, observed by optical microscope (bright field)
# Description: After the HeLa cell line was cultured in a 6-well plate, the culture was removed, and then the HeLa cell line was treated with the solution in Example 1.
# The control group was not treated with any peptide, and the experiment group was treated with eMTDΔ4 peptide of SEQ ID NO: 2 (final concentration: 20 μM). After 10 minutes, the generation of extracellular vesicles was observed by an optical microscope (bright field), and the observation results are shown in FIG. 1.
# Extracellular vesicle production was carried out by the experimental method of Experimental Example 2-1 using the R(8):MTD peptide of SEQ ID NO: 4 and the solutions of Example 1 and Comparative Examples 1 to 18, and the results are shown in FIGS. 2A to 2S.
# Extracellular vesicle production was carried out by the experimental method of Example 2-1 using the R(8):MTD peptide of SEQ ID NO: 4 and the solutions of Examples 1 to 3 on Table 3, and the results are shown in FIGS. 3A to 3C.
# [3] = solution of Example 1, peptide 10 μM
# [4] = solution of Example 1, peptide 20 μM
# [5] = solution of Example 1, peptide 40 μM
Sequence,Amount of proteins contained in extracellular vesicles (293-HEK cell line [1]; [3]) [µg/µL],Amount of proteins contained in extracellular vesicles (293-HEK cell line [1]; [4]) [µg/µL],Amount of proteins contained in extracellular vesicles (293-HEK cell line [1]; [5]) [µg/µL],Quantity of extracellular vesicles (293-HEK cell line [2]) [mL⁻¹],"generation of extracellular vesicles (HeLa cell line; solution of Example 1 (250 mM sucrose), peptide final concentration 20 μM, after 10 minutes)",generation of extracellular vesicles (HeLa cell line; solutions of Comparative Examples 1 to 18 (FIGS. 2B to 2S)),"generation of extracellular vesicles (HeLa cell line; solutions of Examples 1 to 3, excess of glucose or sorbitol instead of sucrose)"
"AEYRKLLNLISKLF (TU128) [Noxa protein-derived derivative peptide, 14aa]",3.86,5.29,7.25,–,–,–,–
"AEYSRKLLNLISKLF (TU135) [Noxa protein-derived derivative peptide, 15aa]",1.81,4.41,6.54,–,–,–,–
"AFFLRKLLNLISKLF (TU151) [Noxa protein-derived derivative peptide, 15aa]",1.51,1.30,1.40,–,–,–,–
"AHFLRKLLNLISKLF (TU149) [Noxa protein-derived derivative peptide, 15aa]",1.71,2.00,2.57,–,–,–,–
"GLKSLRKLLNLISKLF (TU111) [Noxa protein-derived derivative peptide, 16aa]",4.17,4.98,6.44,–,–,–,–
KLLNLISKLF [MTD],0.80,1.17,2.87,8.01e+08 ± 1.75e+07,–,–,–
"KLLNLWSLLFGYTIK (TU103) [Noxa protein-derived derivative peptide, 15aa]",0.75,0.40,0.55,–,–,–,–
"KLLNLWSLLKGYTIK (TU124) [Noxa protein-derived derivative peptide, 15aa]",3.30,5.02,6.24,–,–,–,–
"KLNFAEFLRNLISKLF (TU166) [Noxa protein-derived derivative peptide, 16aa]",5.77,6.68,8.10,–,–,–,–
"KLNFRLGLRSLREKLF (TU168) [Noxa protein-derived derivative peptide, 16aa]",0.77,2.17,3.74,–,–,–,–
"KLNFRQKLARLLTKLF (TU171) [Noxa protein-derived derivative peptide, 16aa]",2.64,3.62,5.30,–,–,–,–
"KVSIFLKNLISKLF (TU156) [Noxa protein-derived derivative peptide, 14aa]",1.17,1.55,3.93,–,–,–,–
"KWYAKLLNLISKLF (TU114) [Noxa protein-derived derivative peptide, 14aa]",–,–,–,8.75e+08 ± 9.27e+07,–,–,–
"LNFKWYSLLNLISKLF (TU172) [Noxa protein-derived derivative peptide, 16aa]",0.83,0.44,0.59,–,–,–,–
"LRSLRDKLLNLISKLF (TU107) [Noxa protein-derived derivative peptide, 16aa]",5.58,6.69,7.45,–,–,–,–
"MEWWYLLKLLNLISKLF (TU104) [Noxa protein-derived derivative peptide, 17aa]",0.62,0.75,1.02,–,–,–,–
"QFAQYLRNLISKLF (TU155) [Noxa protein-derived derivative peptide, 14aa]",1.56,1.77,2.85,–,–,–,–
"RPARPARGGKLLNLISKLF (TU17) [Noxa protein-derived derivative peptide, 19aa]",–,–,–,7.95e+08 ± 7.15e+07,–,–,–
RRRRRRRRKLLNLISKLF [R(8):MTD],–,–,–,–,many extracellular vesicle particles were generated,extracellular vesicle particles were not generated,extracellular vesicles were well formed
"YWLPLRKLLNLISKLF (TU146) [Noxa protein-derived derivative peptide, 16aa]",2.01,2.89,3.50,–,–,–,–
